The source of these data is ChEMBL document CHEMBL4387774, “Design, synthesis, and evaluation of a water soluble C5-monoketone type curcumin analogue as a potent amyloid β aggregation inhibitor” (Bioorg Med Chem Lett, 2019).

pIC50: −log10 of the molar value. Converted amounts (≈) assume the structure as drawn. The source made the active and inactive calls. The rule behind the calls is not given here.

Data set [1] deals with Amyloid-beta precursor protein (Homo sapiens) (UniProt P05067). Description: Disaggregation of self-induced amyloid beta 42 (unknown origin) preformed fibrils assessed as appearance of nanorod-like fragment by […] analysis.
Data set [2] can be described thus: Antioxidant activity assessed as DPPH radical scavenging activity measured after 30 mins. Type of data set: functional. In general terms: The DPPH test is a chemical assay of radical scavenging.
The nature of data set [3]: Aqueous solubility of the compound at 1 mg measured after 12 hrs by shake flask method. In kind it is physicochemical. Conditions: water.
Data set [4] addresses Amyloid-beta precursor protein (Homo sapiens) (UniProt P05067). The data set can be described thus: Inhibition of self-induced amyloid beta 42 (unknown origin) aggregation at 1 uM incubated for 20 hrs by thioflavin-T fluorescence assay relative to control.
For data set [5] the target is unchanged. Description: Disaggregation of self-induced amyloid beta 42 (unknown origin) preformed fibrils assessed as length of nanorod-like fragment by TEM analysis.
The nature of data set [6]: Cytotoxicity against rat PC12 cells measured after 24 hrs by WST8/PMS assay. In kind it is cell-based, PC-12. In general terms: Tetrazolium dyes change colour on reduction, which living cells bring about.
Data set [7] deals with Amyloid-beta precursor protein (Homo sapiens) (UniProt P05067). The data set can be described thus: Inhibition of self-induced amyloid beta 42 (unknown origin) fibril formation at 10 uM incubated for 6 hrs by thioflavin-T fluorescence assay relative to control.
Data set [8] has the same target. The data set can be described thus: Inhibition of self-induced amyloid beta 42 (unknown origin) aggregation at 10 uM incubated for 20 hrs by thioflavin-T fluorescence assay relative to control.

Chain of Amyloid-beta precursor protein (Homo sapiens) (P05067 whole entry, the tested form may be a part): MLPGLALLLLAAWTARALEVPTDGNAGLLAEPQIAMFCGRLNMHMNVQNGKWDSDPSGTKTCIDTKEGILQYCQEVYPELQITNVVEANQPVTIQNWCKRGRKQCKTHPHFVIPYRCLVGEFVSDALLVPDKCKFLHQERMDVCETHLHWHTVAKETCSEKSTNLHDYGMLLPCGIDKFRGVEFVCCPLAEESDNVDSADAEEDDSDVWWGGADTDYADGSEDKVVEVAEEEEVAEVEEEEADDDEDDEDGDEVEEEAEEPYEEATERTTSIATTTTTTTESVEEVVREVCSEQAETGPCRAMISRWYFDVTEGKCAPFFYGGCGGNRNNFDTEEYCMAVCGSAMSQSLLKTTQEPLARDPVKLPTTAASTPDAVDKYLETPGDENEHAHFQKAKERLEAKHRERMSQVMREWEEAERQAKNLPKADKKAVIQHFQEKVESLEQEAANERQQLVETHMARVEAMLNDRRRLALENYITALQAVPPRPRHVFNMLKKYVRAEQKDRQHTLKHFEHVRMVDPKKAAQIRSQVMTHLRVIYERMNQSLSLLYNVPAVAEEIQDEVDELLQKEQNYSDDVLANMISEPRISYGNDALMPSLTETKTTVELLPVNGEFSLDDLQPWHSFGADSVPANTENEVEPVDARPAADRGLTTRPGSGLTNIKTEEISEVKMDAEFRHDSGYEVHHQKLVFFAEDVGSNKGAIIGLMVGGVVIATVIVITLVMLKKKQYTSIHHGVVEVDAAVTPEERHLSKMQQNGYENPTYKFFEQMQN

For orientation: pIC50 means the IC50 on a negative log10 scale, so that one unit is a factor of ten. What is called thermodynamic solubility is solubility found after equilibrating the solid with the medium. Broadly, the inhibition is the share of the control response that was lost under treatment. High values mean a response far below the control, low ones a response near the control. The CC50 is the concentration giving 50% cytotoxicity. The low end stands for harm at low concentration, the high end for better tolerance by the cells. `O=C(/C=C/c1cc(O)ccc1O)/C=C/c1cccc(O)c1O`: the result in data set [1] was Active. In data set [2], the negative-log IC50 (pIC50) is 4.89. Also, the solubility (thermodynamic) at 12 h in data set [3] amounted to 271 µM (≈ 80.8 µg/mL). Moreover, in data set [4], the inhibition worked out at 100%. Moreover, the Activity in data set [5] lay in the range of 50 to 500 nm. Further, in data set [6], the CC50 at 24 h was found to be 59 µM.

On to `O=C(/C=C/c1ccc(O)cc1)CC(=O)/C=C/c1cc(O)ccc1O`, for which the pIC50 in data set [2] is 4.39. For the same compound, in data set [3], the solubility (thermodynamic) at 12 h turned out to be 0.57 µM (≈ 0.185 µg/mL). Moreover, the inhibition in data set [4] was 53%; in data set [7] it was 95 to 100%. Besides, in data set [6], the CC50 at 24 h was 21 µM.

In the case of `O=C(/C=C/c1ccc(O)cc1)/C=C/c1cccc(O)c1O`, the pIC50 in data set [2] is 4.40. For the same compound, the thermodynamic solubility at 12 h in data set [3] is 120 µM (≈ 33.9 µg/mL). For the same compound, in data set [4], the inhibition amounted to 96%. In data set [6], this compound registered a CC50 at 24 h of 12 µM.

Regarding `O=C(/C=C/c1cccc(O)c1)CC(=O)c1ccc(O)c(O)c1`, in data set [2], the negative logarithm of the IC50 (pIC50) was 5.00. For the same compound, in data set [3], the solubility (thermodynamic) at 12 h came to 25 µM (≈ 7.46 µg/mL). Further, in data set [4], the inhibition worked out at 85%. The compound also displayed a half-maximal cytotoxic concentration (CC50) at 24 h in data set [6] greater than 100 µM.

On to `O=C(/C=C/c1ccc(O)c(O)c1)/C=C/c1cc(O)ccc1O`, for which the pIC50 in data set [2] was 4.60. In addition, the thermodynamic solubility at 12 h in data set [3] is 123 µM (≈ 36.7 µg/mL). Also, the inhibition in data set [4] was 100%. In addition, the CC50 at 24 h in data set [6] stood at 39 µM.

In the case of `O=C(/C=C/c1ccc(O)c(O)c1)CC(=O)/C=C/c1cc(O)ccc1O`, the pIC50 in data set [2] was 4.22. Moreover, in data set [3], the solubility (thermodynamic) at 12 h worked out at 54 µM (≈ 18.4 µg/mL). Also, the inhibition in data set [4] was 57%; in data set [7], 95 to 100%. Also, the CC50 at 24 h in data set [6] was determined as 51 µM.

In the case of `O=C(/C=C(O)/C=C/c1ccccc1O)/C=C/c1ccc(O)c(O)c1`, in data set [3], the solubility (thermodynamic) at 12 h turned out to be 31 µM (≈ 10.1 µg/mL). The inhibition in data set [4] stood at 62%.

Regarding `O=C(/C=C/c1cc(O)ccc1O)CC(=O)/C=C/c1cccc(O)c1O`, the pIC50 in data set [2] is 4.57. The solubility (thermodynamic) at 12 h in data set [3] came out at 100 µM (≈ 34 µg/mL). The figures for the inhibition in data set [4] and in data set [7] were 100% and 95 to 100%, respectively. The same compound yielded a cytotoxic concentration (CC50) at 24 h in data set [6] of 53 µM.

With `O=C(/C=C/c1cc(O)ccc1O)CC(=O)c1ccc(O)c(O)c1`, in data set [2], the pIC50 is 4.09. Besides, in data set [3], the solubility (thermodynamic) at 12 h is 47 µM (≈ 14.8 µg/mL). In data set [4], this compound had an inhibition of 98%. In data set [6], this compound displayed a CC50 at 24 h greater than 100 µM.

For the compound `O=C(/C=C/c1cc(O)ccc1O)CC(=O)c1cccc(O)c1O`, the negative logarithm of the IC50 (pIC50) in data set [2] is 4.55. The thermodynamic solubility at 12 h in data set [3] turned out to be 32 µM (≈ 10.1 µg/mL). Moreover, the inhibition in data set [4] is 100%. Further, in data set [6], the cytotoxic concentration (CC50) at 24 h was 63 µM.

With `COc1cc(/C=C/C(=O)CC(=O)/C=C/c2ccc(O)c(OC)c2)ccc1O` [CURCUMIN], the negative-log IC50 (pIC50) in data set [2] was 4.35. The compound also displayed a thermodynamic solubility at 12 h in data set [3] of 0.19 µM (≈ 0.07 µg/mL). For the same compound, the CC50 at 24 h in data set [6] is 42 µM.

In the case of `O=C(/C=C/c1ccccc1O)/C=C/c1cccc(O)c1O`, in data set [2], the pIC50 is 4.00. Further, the solubility (thermodynamic) at 12 h in data set [3] was determined as 151 µM (≈ 42.6 µg/mL). In data set [4], the inhibition turned out to be 98%. The compound also had a CC50 at 24 h in data set [6] of 54 µM.

As for `O=C(/C=C/c1cccc(O)c1)CC(=O)/C=C/c1cc(O)ccc1O`, the negative logarithm of the IC50 (pIC50) in data set [2] is 4.06. In data set [3], the thermodynamic solubility at 12 h amounted to 5.8 µM (≈ 1.88 µg/mL). In addition, the results for the inhibition in data set [4] and in data set [7] were 56% and 95 to 100%, respectively. Besides, it took 15 µM to reach half-maximal cytotoxicity in data set [6] (CC50 at 24 h).

In the case of `O=C(/C=C/c1cccc(O)c1O)CC(=O)/C=C/c1cccc(O)c1O`, the negative-log IC50 (pIC50) in data set [2] was 4.52. For the same compound, the solubility (thermodynamic) at 12 h in data set [3] came out at 5.3 µM (≈ 1.8 µg/mL). Moreover, the inhibition in data set [4] was 93%; in data set [7] it was 95 to 100%. For the same compound, half-maximal cytotoxicity in data set [6] (CC50 at 24 h) was put at 39 µM.

As for `O=C(/C=C/c1ccccc1O)CC(=O)/C=C/c1cc(O)ccc1O`, in data set [2], the negative-log IC50 (pIC50) was 4.32. Further, the thermodynamic solubility at 12 h in data set [3] worked out at 4.4 µM (≈ 1.43 µg/mL). Moreover, the inhibition in data set [4] is 80%; in data set [7], 95 to 100%. Besides, the 50% cytotoxic concentration (CC50) at 24 h in data set [6] is 38 µM.

As to `O=C(/C=C/c1ccc(O)c(O)c1)/C=C/c1ccccc1O`, the pIC50 in data set [2] was 4.21. This compound came in with a solubility (thermodynamic) at 12 h in data set [3] of 111 µM (≈ 31.3 µg/mL). This compound came in with an inhibition in data set [4] of 100%. Besides, in data set [6], the CC50 at 24 h stood at 34 µM.

In the case of `O=C(/C=C/c1ccc(O)cc1)CC(=O)/C=C/c1cccc(O)c1O`, the pIC50 in data set [2] was 4.57. The solubility (thermodynamic) at 12 h in data set [3] worked out at 4.8 µM (≈ 1.56 µg/mL). Also, the inhibition is 95 to 100% in data set [7] and 100% in data set [8]. In addition, in data set [6], the half-maximal cytotoxic concentration (CC50) at 24 h turned out to be 8.5 µM.

As to `O=C(/C=C/c1cc(O)ccc1O)CC(=O)/C=C/c1cc(O)ccc1O`, in data set [2], the negative logarithm of the IC50 (pIC50) was 4.24. The thermodynamic solubility at 12 h in data set [3] stood at 5 µM (≈ 1.7 µg/mL). Moreover, the values for the inhibition in data set [4] and in data set [7] were 99% and 95 to 100%, respectively. In addition, in data set [6], the CC50 at 24 h stood at 24 µM.

Consider `O=C(/C=C/c1cccc(O)c1)/C=C/c1ccc(O)c(O)c1`, for which the pIC50 in data set [2] was 4.15. In data set [3], this compound had a solubility (thermodynamic) at 12 h of 60 µM (≈ 16.9 µg/mL). The same compound showed an inhibition in data set [4] of 100%. Further, the cytotoxic concentration (CC50) at 24 h in data set [6] is greater than 100 µM.

As for `O=C(/C=C/c1cccc(O)c1O)c1cc(O)ccc1O`, the pIC50 in data set [2] was 4.32. In data set [3], this compound came in with a solubility (thermodynamic) at 12 h of 33 µM (≈ 8.98 µg/mL). In data set [4], this compound registered an inhibition of 98%. This compound also yielded a CC50 at 24 h in data set [6] of 89 µM.

In the case of `O=C(/C=C/c1ccc(O)cc1)/C=C/c1ccc(O)c(O)c1`, the pIC50 in data set [2] is 4.62. Moreover, the thermodynamic solubility at 12 h in data set [3] was found to be 19 µM (≈ 5.36 µg/mL). In data set [4], this compound displayed an inhibition of 75%. The midpoint of cytotoxicity in data set [6], the CC50 at 24 h, lay at 12 µM.

Take `O=C(/C=C/c1ccccc1O)CC(=O)c1ccc(O)c(O)c1`: the negative logarithm of the IC50 (pIC50) in data set [2] was 4.80. In data set [3], the solubility (thermodynamic) at 12 h was 77 µM (≈ 23 µg/mL). This compound also gave an inhibition in data set [4] of 90%. For the same compound, in data set [6], the CC50 at 24 h was greater than 90 µM.

Turning to `O=C(/C=C/c1ccccc1O)CC(=O)/C=C/c1cccc(O)c1O`, the pIC50 in data set [2] is 4.64. For the same compound, the solubility (thermodynamic) at 12 h in data set [3] worked out at 11 µM (≈ 3.57 µg/mL). The inhibition in data set [4] was 92%; in data set [7], 95 to 100%. The compound further returned a CC50 at 24 h in data set [6] of 34 µM.

Turning to `O=C(/C=C/c1ccc(O)c(O)c1)CC(=O)/C=C/c1cccc(O)c1O`, the negative-log IC50 (pIC50) in data set [2] was 4.72. In addition, the thermodynamic solubility at 12 h in data set [3] worked out at 3.8 µM (≈ 1.29 µg/mL). For the same compound, the inhibition in data set [7] was 95 to 100%; in data set [8], 98%. For the same compound, the cytotoxic concentration (CC50) at 24 h in data set [6] was 16 µM.

Consider `O=C(/C=C/c1ccc(O)c(O)c1)c1cc(O)ccc1O`, for which the pIC50 in data set [2] is 4.41. Moreover, the thermodynamic solubility at 12 h in data set [3] turned out to be 16 µM (≈ 4.36 µg/mL). Besides, the inhibition in data set [4] came out at 85%. In data set [6], the half-maximal cytotoxic concentration (CC50) at 24 h worked out at 80 µM.

Consider `O=C(/C=C/c1cccc(O)c1)/C=C/c1cccc(O)c1O`, for which, in data set [2], the pIC50 is 4.32. Moreover, in data set [3], the solubility (thermodynamic) at 12 h is 184 µM (≈ 51.9 µg/mL). In data set [4], this compound came in with an inhibition of 90%. Also, half-maximal cytotoxicity in data set [6] (CC50 at 24 h) was put at 46 µM.

On to `O=C(/C=C/c1cccc(O)c1)CC(=O)/C=C/c1cccc(O)c1O`, for which the negative-log IC50 (pIC50) in data set [2] is 4.54. In data set [3], this compound came in with a solubility (thermodynamic) at 12 h of 8.2 µM (≈ 2.66 µg/mL). Moreover, the values for the inhibition in data set [7] and in data set [8] were 95 to 100% and 100%, respectively. Moreover, the CC50 at 24 h in data set [6] is 38 µM.
